According to ChEMBL document CHEMBL4507286 (2021):

Experiments:
[1] = tested on: Tyrosine-protein kinase ABL1 (Homo sapiens), P00519 [E255K]
[2] = tested on: ALK tyrosine kinase receptor (Homo sapiens), Q9UM73 [C1156Y]
[3] = target: Tyrosine-protein kinase Blk (Homo sapiens) (UniProt P51451)
[4] = target: Casein kinase I isoform epsilon (Homo sapiens) (UniProt P49674)
[5] = target: Casein kinase II subunit alpha' (Homo sapiens) (UniProt P19784)
[6] = target: Serine/threonine-protein kinase 17A (Homo sapiens) (UniProt Q9UEE5)
[7] = target: Serine/threonine-protein kinase 17B (Homo sapiens) (UniProt O94768)
Sequence of Serine/threonine-protein kinase 17B (Homo sapiens) (O94768 whole entry): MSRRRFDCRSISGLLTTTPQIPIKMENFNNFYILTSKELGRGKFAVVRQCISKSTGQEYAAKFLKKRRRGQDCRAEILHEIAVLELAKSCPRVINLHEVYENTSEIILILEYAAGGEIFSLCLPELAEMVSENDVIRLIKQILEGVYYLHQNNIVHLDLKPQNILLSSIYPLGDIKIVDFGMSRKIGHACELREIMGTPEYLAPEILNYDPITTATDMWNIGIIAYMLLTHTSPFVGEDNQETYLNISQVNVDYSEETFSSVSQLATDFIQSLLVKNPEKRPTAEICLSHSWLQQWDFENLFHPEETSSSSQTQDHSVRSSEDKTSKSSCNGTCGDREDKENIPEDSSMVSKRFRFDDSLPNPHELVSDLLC

[8] = tested on: Epidermal growth factor receptor (Homo sapiens), P00533 [G719C]
[9] = tested on: Epidermal growth factor receptor (Homo sapiens), P00533 [UNDEFINED MUTATION]
[10] = tested on: Epidermal growth factor receptor (Homo sapiens), P00533 [L861Q]
[11] = target: Mitogen-activated protein kinase 6 (Homo sapiens) (UniProt Q16659)
Sequence of Mitogen-activated protein kinase 6 (Homo sapiens) (Q16659 whole entry): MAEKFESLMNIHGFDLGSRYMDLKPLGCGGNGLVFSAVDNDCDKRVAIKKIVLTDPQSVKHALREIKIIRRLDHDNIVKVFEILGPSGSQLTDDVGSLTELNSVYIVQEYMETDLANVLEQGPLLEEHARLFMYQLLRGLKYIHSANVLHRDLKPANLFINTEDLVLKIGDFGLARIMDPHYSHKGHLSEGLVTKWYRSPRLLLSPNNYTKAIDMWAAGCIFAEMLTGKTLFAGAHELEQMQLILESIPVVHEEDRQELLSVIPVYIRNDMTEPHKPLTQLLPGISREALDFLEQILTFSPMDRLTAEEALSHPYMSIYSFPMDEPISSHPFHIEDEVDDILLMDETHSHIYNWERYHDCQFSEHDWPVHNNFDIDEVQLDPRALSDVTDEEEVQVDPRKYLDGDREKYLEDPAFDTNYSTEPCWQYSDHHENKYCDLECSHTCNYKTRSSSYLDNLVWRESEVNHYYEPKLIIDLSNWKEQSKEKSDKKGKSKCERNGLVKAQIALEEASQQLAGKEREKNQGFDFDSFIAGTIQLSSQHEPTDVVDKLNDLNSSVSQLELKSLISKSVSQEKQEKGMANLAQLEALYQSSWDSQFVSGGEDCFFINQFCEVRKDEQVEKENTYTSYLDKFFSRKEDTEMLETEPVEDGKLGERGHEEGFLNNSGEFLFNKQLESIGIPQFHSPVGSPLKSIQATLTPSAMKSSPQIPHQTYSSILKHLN

[12] = target: Mitogen-activated protein kinase 7 (Homo sapiens) (UniProt Q13164)
[13] = target: Focal adhesion kinase 1 (Homo sapiens) (UniProt Q05397)
[14] = target: Tyrosine-protein kinase Fer (Homo sapiens) (UniProt P16591)
[15] = target: Vascular endothelial growth factor receptor 1 (Homo sapiens) (UniProt P17948)
Sequence of Vascular endothelial growth factor receptor 1 (Homo sapiens) (P17948 whole entry): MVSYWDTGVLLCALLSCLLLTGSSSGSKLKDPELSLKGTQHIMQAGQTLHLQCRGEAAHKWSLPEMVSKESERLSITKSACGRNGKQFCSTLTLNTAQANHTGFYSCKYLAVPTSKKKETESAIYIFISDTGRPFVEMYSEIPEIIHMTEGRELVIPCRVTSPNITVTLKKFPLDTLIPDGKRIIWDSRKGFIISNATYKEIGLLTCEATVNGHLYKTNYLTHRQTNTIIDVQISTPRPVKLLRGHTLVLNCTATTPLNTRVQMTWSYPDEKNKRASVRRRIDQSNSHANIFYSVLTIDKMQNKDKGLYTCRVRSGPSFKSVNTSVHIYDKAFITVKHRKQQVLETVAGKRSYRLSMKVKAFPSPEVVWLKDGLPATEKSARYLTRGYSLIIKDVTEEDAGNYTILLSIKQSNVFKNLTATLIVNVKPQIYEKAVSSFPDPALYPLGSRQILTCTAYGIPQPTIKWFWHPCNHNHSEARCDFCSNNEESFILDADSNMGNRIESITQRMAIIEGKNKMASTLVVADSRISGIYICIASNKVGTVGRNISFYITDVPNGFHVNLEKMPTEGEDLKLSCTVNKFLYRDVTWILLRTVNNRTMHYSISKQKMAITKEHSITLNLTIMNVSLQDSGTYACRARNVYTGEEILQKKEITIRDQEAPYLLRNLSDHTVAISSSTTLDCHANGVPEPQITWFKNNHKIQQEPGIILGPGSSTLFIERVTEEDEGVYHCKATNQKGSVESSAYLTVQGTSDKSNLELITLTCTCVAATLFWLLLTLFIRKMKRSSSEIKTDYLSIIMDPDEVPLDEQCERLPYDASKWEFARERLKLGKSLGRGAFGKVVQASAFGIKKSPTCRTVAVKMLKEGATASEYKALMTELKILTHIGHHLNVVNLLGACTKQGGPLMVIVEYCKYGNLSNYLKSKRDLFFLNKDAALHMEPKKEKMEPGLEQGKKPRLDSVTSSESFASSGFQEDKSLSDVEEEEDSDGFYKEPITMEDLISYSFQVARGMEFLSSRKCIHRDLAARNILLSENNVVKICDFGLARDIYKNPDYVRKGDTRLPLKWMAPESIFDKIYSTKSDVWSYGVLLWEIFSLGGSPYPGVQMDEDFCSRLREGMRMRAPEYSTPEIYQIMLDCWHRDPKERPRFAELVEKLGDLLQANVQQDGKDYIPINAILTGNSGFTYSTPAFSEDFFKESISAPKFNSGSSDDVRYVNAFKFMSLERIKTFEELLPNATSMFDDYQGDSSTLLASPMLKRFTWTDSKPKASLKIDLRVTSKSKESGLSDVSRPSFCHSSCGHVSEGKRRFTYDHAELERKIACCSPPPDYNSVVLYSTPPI

[16] = target: Tyrosine-protein kinase HCK (Homo sapiens) (UniProt P08631)
[17] = target: Mitogen-activated protein kinase kinase kinase kinase 1 (Homo sapiens) (UniProt Q92918)
[18] = tested on: Mast/stem cell growth factor receptor Kit (Homo sapiens), P10721 [D816V]
[19] = target: Serine/threonine-protein kinase LATS1 (Homo sapiens) (UniProt O95835)
[20] = target: MAP kinase-activated protein kinase 5 (Homo sapiens) (UniProt Q8IW41)
[21] = target: Dual specificity mitogen-activated protein kinase kinase 6 (Homo sapiens) (UniProt P52564)
Sequence of Dual specificity mitogen-activated protein kinase kinase 6 (Homo sapiens) (P52564 whole entry): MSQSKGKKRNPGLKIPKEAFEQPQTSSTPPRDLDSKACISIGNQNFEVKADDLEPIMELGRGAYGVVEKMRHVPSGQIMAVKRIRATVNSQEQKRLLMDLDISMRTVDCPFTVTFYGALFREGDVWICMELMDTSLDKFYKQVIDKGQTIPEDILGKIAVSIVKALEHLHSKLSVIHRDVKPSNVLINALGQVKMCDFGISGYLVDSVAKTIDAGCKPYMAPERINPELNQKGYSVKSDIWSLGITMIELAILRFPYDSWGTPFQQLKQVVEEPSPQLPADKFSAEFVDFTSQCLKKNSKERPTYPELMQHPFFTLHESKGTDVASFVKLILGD

[22] = target: Myosin light chain kinase (Homo sapiens) (UniProt Q32MK0)
[23] = target: Mitogen-activated protein kinase kinase kinase 11 (Homo sapiens) (UniProt Q16584)
[24] = target: Serine/threonine-protein kinase MRCK alpha (Homo sapiens) (UniProt Q5VT25)
[25] = target: Phosphorylase b kinase gamma catalytic chain, skeletal muscle/heart isoform (Homo sapiens) (UniProt Q16816)
[26] = target: Serine/threonine-protein kinase pim-2 (Homo sapiens) (UniProt Q9P1W9)
[27] = target: Protein kinase C iota type (Homo sapiens) (UniProt P41743)
[28] = target: Serine/threonine-protein kinase D2 (Homo sapiens) (UniProt Q9BZL6)
[29] = target: cGMP-dependent protein kinase 1 (Homo sapiens) (UniProt Q13976)
[30] = target: Serine/threonine-protein kinase RIO1 (Homo sapiens) (UniProt Q9BRS2)
[31] = target: Rho-associated protein kinase 1 (Homo sapiens) (UniProt Q13464)
[32] = target: Ribosomal protein S6 kinase alpha-4 (Homo sapiens) (UniProt O75676)
[33] = target: Ribosomal protein S6 kinase alpha-3 (Homo sapiens) (UniProt P51812)
Sequence of Ribosomal protein S6 kinase alpha-3 (Homo sapiens) (P51812 whole entry): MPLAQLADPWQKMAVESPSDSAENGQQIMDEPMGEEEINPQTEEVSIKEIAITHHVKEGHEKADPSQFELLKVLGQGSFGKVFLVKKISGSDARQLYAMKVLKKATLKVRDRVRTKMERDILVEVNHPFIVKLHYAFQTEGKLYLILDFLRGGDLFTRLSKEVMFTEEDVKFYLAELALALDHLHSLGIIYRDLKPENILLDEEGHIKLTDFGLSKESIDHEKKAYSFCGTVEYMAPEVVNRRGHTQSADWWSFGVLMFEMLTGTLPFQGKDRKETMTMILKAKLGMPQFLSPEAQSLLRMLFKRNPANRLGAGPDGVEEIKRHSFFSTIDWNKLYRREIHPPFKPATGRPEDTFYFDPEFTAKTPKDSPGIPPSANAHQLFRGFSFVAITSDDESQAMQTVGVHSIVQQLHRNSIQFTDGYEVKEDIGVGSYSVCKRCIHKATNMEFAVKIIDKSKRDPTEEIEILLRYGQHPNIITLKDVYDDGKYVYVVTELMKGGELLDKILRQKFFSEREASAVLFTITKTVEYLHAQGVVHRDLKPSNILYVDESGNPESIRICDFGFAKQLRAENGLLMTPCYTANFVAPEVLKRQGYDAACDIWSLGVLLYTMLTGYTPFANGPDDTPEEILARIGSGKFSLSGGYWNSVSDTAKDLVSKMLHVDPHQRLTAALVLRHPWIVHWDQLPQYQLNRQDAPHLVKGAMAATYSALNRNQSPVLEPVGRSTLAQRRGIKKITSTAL

[34] = target: Serine/threonine-protein kinase Sgk3 (Homo sapiens) (UniProt Q96BR1)
[35] = target: Serine/threonine-protein kinase SIK2 (Homo sapiens) (UniProt Q9H0K1)
Sequence of Serine/threonine-protein kinase SIK2 (Homo sapiens) (Q9H0K1 whole entry, looked up): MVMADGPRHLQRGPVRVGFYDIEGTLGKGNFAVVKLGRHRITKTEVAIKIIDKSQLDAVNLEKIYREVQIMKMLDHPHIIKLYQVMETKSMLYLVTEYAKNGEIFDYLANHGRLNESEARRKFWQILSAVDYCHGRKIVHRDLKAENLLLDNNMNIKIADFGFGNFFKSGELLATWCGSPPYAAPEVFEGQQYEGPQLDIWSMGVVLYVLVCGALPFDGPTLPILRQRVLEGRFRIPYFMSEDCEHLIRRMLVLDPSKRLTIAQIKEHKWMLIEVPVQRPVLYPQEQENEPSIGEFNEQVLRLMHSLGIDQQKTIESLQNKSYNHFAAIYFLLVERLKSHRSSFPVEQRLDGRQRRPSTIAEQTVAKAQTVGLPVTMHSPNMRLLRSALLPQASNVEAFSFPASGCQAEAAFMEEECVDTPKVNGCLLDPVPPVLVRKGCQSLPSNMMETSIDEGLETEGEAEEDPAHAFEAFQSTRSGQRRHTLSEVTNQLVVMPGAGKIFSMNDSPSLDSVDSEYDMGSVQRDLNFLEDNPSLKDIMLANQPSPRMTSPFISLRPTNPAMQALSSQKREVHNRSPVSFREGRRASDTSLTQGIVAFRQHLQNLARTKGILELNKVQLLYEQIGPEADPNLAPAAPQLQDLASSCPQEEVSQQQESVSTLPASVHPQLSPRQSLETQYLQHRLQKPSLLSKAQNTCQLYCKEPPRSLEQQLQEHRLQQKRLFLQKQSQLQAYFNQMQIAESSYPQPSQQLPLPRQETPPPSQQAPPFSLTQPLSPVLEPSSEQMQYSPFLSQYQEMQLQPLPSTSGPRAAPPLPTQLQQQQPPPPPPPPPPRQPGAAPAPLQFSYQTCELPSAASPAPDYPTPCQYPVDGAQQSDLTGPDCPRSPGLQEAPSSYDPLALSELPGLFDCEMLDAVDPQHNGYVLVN

[36] = target: Proto-oncogene tyrosine-protein kinase Src (Homo sapiens) (UniProt P12931)
[37] = target: Serine/threonine-protein kinase TAO1 (Homo sapiens) (UniProt Q7L7X3)
[38] = target: Angiopoietin-1 receptor (Homo sapiens) (UniProt Q02763)
[39] = target: High affinity nerve growth factor receptor (Homo sapiens) (UniProt P04629)
[40] = target: Dual specificity protein kinase TTK (Homo sapiens) (UniProt P33981)
[41] = target: Non-receptor tyrosine-protein kinase TYK2 (Homo sapiens) (UniProt P29597)
[42] = target: Wee1-like protein kinase (Homo sapiens) (UniProt P30291)
[43] = target: D(3) dopamine receptor (Homo sapiens) (UniProt P35462); conditions: Compound concentration 10.0 uM
[44] = target: Histamine H1 receptor (Homo sapiens) (UniProt P35367); conditions: Compound concentration 10.0 uM
[45] = target: Histamine H4 receptor (Homo sapiens) (UniProt Q9H3N8); conditions: Compound concentration 10.0 uM
[46] = target: Muscarinic acetylcholine receptor M4 (Homo sapiens) (UniProt P08173); conditions: Compound concentration 10.0 uM
Sequence of Muscarinic acetylcholine receptor M4 (Homo sapiens) (P08173 whole entry): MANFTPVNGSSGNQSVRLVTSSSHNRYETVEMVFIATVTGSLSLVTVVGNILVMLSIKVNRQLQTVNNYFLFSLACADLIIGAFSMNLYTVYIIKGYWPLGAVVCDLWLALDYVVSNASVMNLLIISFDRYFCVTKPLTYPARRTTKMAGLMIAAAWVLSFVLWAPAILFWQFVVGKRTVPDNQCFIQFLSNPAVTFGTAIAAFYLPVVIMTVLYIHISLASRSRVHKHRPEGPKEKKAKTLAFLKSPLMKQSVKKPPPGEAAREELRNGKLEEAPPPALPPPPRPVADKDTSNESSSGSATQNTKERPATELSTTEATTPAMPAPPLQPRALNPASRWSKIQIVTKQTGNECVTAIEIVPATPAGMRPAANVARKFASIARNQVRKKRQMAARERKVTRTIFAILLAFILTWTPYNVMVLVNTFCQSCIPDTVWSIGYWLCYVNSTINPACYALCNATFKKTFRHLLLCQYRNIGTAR

[47] = Compound concentration 1000.0 nM
[48] = Compound concentration 100.0 nM

C[C@H](NC(=O)Nc1cc2[nH]ncc2c(CO)n1)c1ccccn1 [ERKi-NC]
inactive: residual activity [1, 47] 81.4% | residual activity [2, 47] 100% | residual activity [3, 47] 100% | residual activity [4, 47] 96.1% | residual activity [5, 47] 100% | residual activity [6, 47] 100% | residual activity [7, 47] 100% | residual activity [8, 47] 100% | residual activity [9, 47] 86.6% | residual activity [10, 47] 100% | residual activity [11, 47] 100% | residual activity [12, 47] 87.9% | residual activity [13, 47] 100% | residual activity [14, 47] 88.8% | residual activity [15, 47] 100% | residual activity [16, 47] 100% | residual activity [17, 47] 93.8% | residual activity [18, 47] 100% | residual activity [19, 47] 100% | residual activity [20, 47] 100% | residual activity [21, 47] 100% | residual activity [22, 47] 100% | residual activity [23, 47] 87.7% | residual activity [24, 47] 93.5% | residual activity [25, 47] 96.3% | residual activity [26, 47] 100% | residual activity [27, 47] 85.5% | residual activity [28, 47] 100% | residual activity [29, 47] 90.7% | residual activity [30, 47] 100% | residual activity [31, 47] 66% | residual activity [32, 47] 100% | residual activity [33, 47] 79.5% | residual activity [34, 47] 93.6% | residual activity [35, 47] 94% | residual activity [36, 47] 100% | residual activity [37, 47] 100% | residual activity [38, 47] 71.1% | residual activity [39, 47] 81% | residual activity [40, 47] 80.3% | residual activity [41, 47] 69.9% | residual activity [42, 47] 100% | inhibition [43] 27.9% | inhibition [44] 4.18% | inhibition [45] 41.9% | inhibition [46] 18.7%

C[C@@H](NC(=O)Nc1cc2[nH]ncc2c(CO)n1)c1ccccc1 [ERKi]
inactive: residual activity [1, 48] 83.4% | residual activity [2, 48] 100% | residual activity [3, 48] 100% | residual activity [4, 48] 95.1% | residual activity [5, 48] 76% | residual activity [6, 48] 88% | residual activity [7, 48] 95.8% | residual activity [8, 48] 95.7% | residual activity [9, 48] 72.6% | residual activity [10, 48] 100% | residual activity [11, 48] 95.2% | residual activity [12, 48] 85.5% | residual activity [13, 48] 85.7% | residual activity [14, 48] 100% | residual activity [15, 48] 100% | residual activity [16, 48] 94.6% | residual activity [17, 48] 96.9% | residual activity [18, 48] 82.7% | residual activity [19, 48] 59.3% | residual activity [20, 48] 80% | residual activity [21, 48] 81.4% | residual activity [22, 48] 100% | residual activity [23, 48] 100% | residual activity [24, 48] 86.5% | residual activity [25, 48] 84.1% | residual activity [26, 48] 100% | residual activity [27, 48] 100% | residual activity [28, 48] 97.5% | residual activity [29, 48] 52.4% | residual activity [30, 48] 100% | residual activity [31, 48] 64.7% | residual activity [32, 48] 72.5% | residual activity [33, 48] 85.4% | residual activity [34, 48] 83.2% | residual activity [35, 48] 85.7% | residual activity [36, 48] 94.6% | residual activity [37, 48] 66.4% | residual activity [38, 48] 100% | residual activity [39, 48] 90% | residual activity [40, 48] 85.2% | residual activity [41, 48] 94.7% | residual activity [42, 48] 98.9% | inhibition [43] -2.24% | inhibition [44] -7.28% | inhibition [45] 35.3% | inhibition [46] -0.569%
